We go through 18 molecules from PubChem BioAssay (NCI).

Test systems include COLO 205 colon; HOP-62 NSCLC; LOX IMVI melanoma; NCI-H522 lung; RXF 393 renal; SF-268 CNS; SN12C renal; SNB-75 CNS; SR leukemia; U251 CNS.
Holding throughout (test): growth of human tumour cells (NCI), 48 h

“And” between values parts separate entries of the source, which are not always exact repeats. Identical values can stand only once.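 Interpolation was linear, between the two tested concentrations surrounding the appropriate level; five concentrations were tested over 48 hours in 96-well plates. GI50 marks 50% less growth. TGI denotes the concentration required for complete inhibition of growth.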

In the case of `C#Cc1cccc(Nc2ncnc3cc(OC)c(OCCCCCCC(=O)NO)cc23)c1`, the GI50 is 0.157 µM in the test with COLO 205 colon; 0.311 µM with HOP-62 NSCLC; 0.195 µM in the test with LOX IMVI melanoma; 0.0305 µM in the test on NCI-H522 lung; 0.0752 µM in the test on RXF 393 renal; 0.379 µM in the test on SF-268 CNS. Further, the GI50 was 0.129 µM in the test on SN12C renal, 0.0267 µM in the test with SNB-75 CNS, 0.0219 µM with SR leukemia and 0.151 µM in the test with U251 CNS. In addition, the TGI in the test with COLO 205 colon was 0.538 µM; in the test on HOP-62 NSCLC, 4.57 µM; with LOX IMVI melanoma, 1.81 µM; in the test on NCI-H522 lung, 0.43 µM; in the test on RXF 393 renal, 0.367 µM; in the test with SF-268 CNS, 2.65 µM. For the same molecule, the TGI turned out to be 4.21 µM in the test on SN12C renal, 0.468 µM with SNB-75 CNS, 2.09 µM in the test on SR leukemia and 4.07 µM with U251 CNS.

Turning to `CC(SC(C)C(=O)N/N=C/c1cccc(Cl)c1)C(=O)N/N=C\c1cccc(Cl)c1` (stereo not drawn), the GI50 with COLO 205 colon is 11.6 µM; in the test on HOP-62 NSCLC, 13.9 µM; in the test on LOX IMVI melanoma, 3.03 µM; in the test with NCI-H522 lung it was 3.57 µM; in the test with RXF 393 renal, 22.6 µM; with SF-268 CNS it was 10.2 µM. Besides, the GI50 with SN12C renal was 12.1 µM; with SNB-75 CNS, 4.28 µM; with SR leukemia it was 3.53 µM; in the test with U251 CNS it was 3.74 µM. The TGI in the test with COLO 205 colon is 38.9 µM; with HOP-62 NSCLC, 31.4 µM; with LOX IMVI melanoma, 10.5 µM; in the test on NCI-H522 lung, 11.6 µM; in the test on RXF 393 renal, 90.1 µM; in the test on SF-268 CNS, 35.5 µM. In addition, the TGI with SN12C renal stood at 53.9 µM; with SNB-75 CNS, 19.5 µM; with SR leukemia, 11.1 µM; in the test with U251 CNS, 15.1 µM.

Take `CC1OC(n2cc(F)c(=O)[nH]c2=O)C=CC1O` (stereo not drawn): the TGI was over 100 µM in the test on COLO 205 colon; over 100 µM with HOP-62 NSCLC; over 64.3 µM in the test with LOX IMVI melanoma; over 100 µM in the test on NCI-H522 lung; over 100 µM with RXF 393 renal; over 100 µM with SF-268 CNS. Further, the TGI in the test on SN12C renal, with SNB-75 CNS, in the test on SR leukemia and in the test on U251 CNS was over 100 µM each time.

Regarding `C/C(=C\CCc1ccoc1)CC/C=C(\C)CCCC1=CC(=O)OC1`, the GI50 with COLO 205 colon is 4.96 µM; with HOP-62 NSCLC, 16 µM; in the test on LOX IMVI melanoma it was 4.84 µM; in the test on NCI-H522 lung, 5.45 µM; in the test on RXF 393 renal, 3.17 µM; with SF-268 CNS it was 17.7 µM. In addition, the results for the GI50 with SN12C renal, with SNB-75 CNS and in the test with SR leukemia were 11.2 µM, 4.46 µM and 3.45 µM, respectively. For the same molecule, the TGI with COLO 205 colon was 23.1 µM; with HOP-62 NSCLC, 55 µM; with LOX IMVI melanoma, 17.2 µM; in the test with NCI-H522 lung, 22.2 µM; with RXF 393 renal, 15.7 µM; in the test on SF-268 CNS, over 100 µM. Also, the TGI in the test on SN12C renal worked out at 39.6 µM; with SNB-75 CNS, 52 µM; in the test with SR leukemia, 17.1 µM.

With `Cc1nnc(S(=O)(=O)c2ccc(N=Nc3c(N)nc(N)nc3N)cc2)s1`, the TGI in the test on COLO 205 colon, in the test on HOP-62 NSCLC, in the test with LOX IMVI melanoma, in the test on NCI-H522 lung, in the test on RXF 393 renal and in the test on SF-268 CNS was over 100 µM throughout. Besides, the TGI in the test with SN12C renal, in the test with SR leukemia and in the test on U251 CNS was over 100 µM in each case.

In the case of `Cc1ccc(SC(C)/C=C/NNC2=NC(c3ccccc3)C(c3ccccc3)=NN2)cc1` (stereo not drawn), the TGI is over 100 µM in the test on COLO 205 colon; over 100 µM in the test on LOX IMVI melanoma; 88.9 µM with NCI-H522 lung; over 100 µM with SF-268 CNS; over 100 µM with SN12C renal; over 100 µM in the test with SNB-75 CNS. In the test on SR leukemia, this molecule showed a TGI of 65.1 µM.

For `CS(=O)(=O)N/N=C/CN1C(=O)c2ccccc2C1=O`, the TGI with COLO 205 colon, with HOP-62 NSCLC, in the test with NCI-H522 lung, with SF-268 CNS, in the test on SN12C renal and in the test with SNB-75 CNS was over 100 µM in each case. In addition, the TGI with SR leukemia and with U251 CNS was over 100 µM throughout.

Take `O=[n+]1c2c(n([O-])c3ccccc31)CCCCCCCCCC2`: the TGI in the test on LOX IMVI melanoma, in the test with NCI-H522 lung, in the test with SF-268 CNS, in the test on SN12C renal, in the test on SNB-75 CNS and in the test on SR leukemia was over 100 µM throughout. The same molecule had a TGI in the test with U251 CNS of over 100 µM.

On to `CNC(=S)NC1CCCCC1NC(=S)NC` (stereo not drawn), for which the TGI in the test with COLO 205 colon, in the test on HOP-62 NSCLC, in the test on LOX IMVI melanoma, with NCI-H522 lung, in the test on SF-268 CNS and in the test on SN12C renal was over 100 µM throughout. Moreover, the TGI with SNB-75 CNS, in the test with SR leukemia and with U251 CNS was over 100 µM each time.

As to `COC(=O)c1cc2c3ccccc3n(C(C)=O)c2cn1`, the TGI with COLO 205 colon is over 100 µM; in the test on HOP-62 NSCLC, over 100 µM; with LOX IMVI melanoma it was over 100 µM; in the test with NCI-H522 lung, over 100 µM; in the test on RXF 393 renal it was 87.1 µM; in the test with SN12C renal, over 100 µM. In addition, the TGI with SNB-75 CNS, in the test with SR leukemia and in the test on U251 CNS was over 100 µM in each case.

For the molecule `COC(=O)C1=C(c2ccc3c(c2)OCO3)O[C@H](c2cc(OC)c(OC)c(OC)c2)[C@H]1COC(C)=O`, the TGI with COLO 205 colon is 3.02 µM; in the test with HOP-62 NSCLC, 84.7 µM; with LOX IMVI melanoma it was 55.3 µM; in the test on RXF 393 renal, 5.09 µM; in the test on SF-268 CNS, over 100 µM; in the test with SN12C renal, 37.9 µM. Also, the TGI in the test on SNB-75 CNS is over 100 µM; with SR leukemia, 70.3 µM; in the test on U251 CNS, 18.4 µM.

For the molecule `O=C1OC(c2ccccc2)=N/C1=C/C=C/c1ccco1`, the TGI with COLO 205 colon, in the test on NCI-H522 lung, in the test on RXF 393 renal, with SF-268 CNS, with SN12C renal and with SR leukemia was over 100 µM throughout. Moreover, the TGI with U251 CNS is over 100 µM.

For `O=c1nc2occc2cn1C1CC(O)C(CO)O1` (stereo not drawn), the TGI in the test on COLO 205 colon, in the test on HOP-62 NSCLC, in the test on LOX IMVI melanoma, in the test on RXF 393 renal, with SF-268 CNS and in the test with SN12C renal was over 100 µM throughout. In addition, the TGI with SNB-75 CNS, with SR leukemia and in the test on U251 CNS was over 100 µM each time.

`O=Cc1cc2c(cc1-c1c(C=O)ccc3c1OCO3)OCO2`: the TGI with COLO 205 colon, in the test on HOP-62 NSCLC, in the test on LOX IMVI melanoma, with SF-268 CNS, in the test on SN12C renal and with SNB-75 CNS was over 10 µM in each case. For the same molecule, the TGI with SR leukemia and in the test with U251 CNS was over 10 µM in each case.

Turning to `Cc1cc(Br)cc(C)c1NC(=O)C(=O)C(C(=O)c1ccc2ccccc2c1)C1OC(=O)c2ccccc21` (stereo not drawn), the TGI was 50.9 µM in the test on COLO 205 colon; 18.7 µM in the test with HOP-62 NSCLC; 31.1 µM in the test on LOX IMVI melanoma; 22.8 µM with NCI-H522 lung; 17.8 µM with RXF 393 renal; 50.5 µM with SN12C renal. Further, the TGI with SNB-75 CNS is 43.9 µM; with SR leukemia, 33.9 µM; in the test with U251 CNS, 18.7 µM.

Regarding `COc1ccc(N(C)c2ncnc3occ(C)c23)cc1`, the GI50 in the test with COLO 205 colon was under 0.01 µM; in the test with LOX IMVI melanoma, under 0.01 µM; in the test on NCI-H522 lung, under 0.01 µM; with SF-268 CNS, 0.0101 µM; in the test on SN12C renal, under 0.01 µM; in the test on SNB-75 CNS, under 0.01 µM. Also, the GI50 in the test on SR leukemia and in the test on U251 CNS was under 0.01 µM in each case. Further, the TGI with COLO 205 colon is under 0.0105 µM; with HOP-62 NSCLC, over 100 µM; in the test on LOX IMVI melanoma it was over 100 µM; with NCI-H522 lung, under 0.01 µM; with SF-268 CNS, over 62.3 µM; with SN12C renal it was over 100 µM. Further, the TGI was over 52 µM with SNB-75 CNS, 0.236 µM in the test on SR leukemia and 11.9 µM in the test with U251 CNS.

As for `COc1ccc(NC(=O)CCc2cc(-c3ccc(O)c(OC)c3)nc(NC#N)n2)cc1`, the TGI in the test with COLO 205 colon, with HOP-62 NSCLC, in the test with LOX IMVI melanoma, in the test with RXF 393 renal, in the test with SF-268 CNS and with SN12C renal was over 100 µM in each case. For the same molecule, the TGI with SR leukemia and in the test on U251 CNS was over 100 µM throughout.

On to `CCOC(=O)Oc1c(OC)cc(C(=O)NC2CCc3cc(OC)c(OC)c(OC)c3-c3ccc(SC)c(=O)cc32)cc1OC` (stereo not drawn), for which the GI50 with COLO 205 colon is 0.0138 µM; in the test on HOP-62 NSCLC, 0.0328 µM; in the test with SF-268 CNS, 0.0174 µM; in the test with SN12C renal it was 0.0136 µM; in the test with SNB-75 CNS, under 0.007 µM; in the test with U251 CNS, 0.00962 µM. Further, the TGI in the test with COLO 205 colon was 0.191 µM and 0.0613 µM; with HOP-62 NSCLC, 59.6 µM; in the test on NCI-H522 lung it was under 0.007 µM; with SF-268 CNS, 21.4 µM; in the test with SN12C renal, 25.2 µM; in the test on SNB-75 CNS, under 0.007 µM. For the same molecule, the TGI is under 0.007 µM in the test with SR leukemia; 0.287 µM and 0.0579 µM in the test with U251 CNS.
